Data published in ChEMBL document CHEMBL4138123, “Design, synthesis and biological evaluation of novel pyrazolochalcones as potential modulators of PI3K/Akt/mTOR pathway and inducers of apoptosis in breast cancer cells” (Eur J Med Chem, 2017).

Tests used:
Format in all cases: functional
DU-145 = assay: Cytotoxicity against human DU145 cells assessed as growth inhibition after 48 hrs by sulforhodamine B assay; conditions: DU-145, 48 h
MDA-MB-435 = assay: Cytotoxicity against human MDA-MB-435 cells assessed as growth inhibition after 48 hrs by sulforhodamine B assay; conditions: MDA-MB-435, 48 h
LOX IMVI = assay: Cytotoxicity against human LOXIMVI cells assessed as growth inhibition after 48 hrs by sulforhodamine B assay
M14 = assay: Cytotoxicity against human M14 cells assessed as growth inhibition after 48 hrs by sulforhodamine B assay; conditions: M14, 48 h
PC-3 = assay: Cytotoxicity against human PC3 cells assessed as growth inhibition after 48 hrs by sulforhodamine B assay; conditions: PC-3, 48 h
COLO 205 [1] = assay: Cytotoxicity against human COLO205 cells assessed as growth inhibition after 48 hrs by sulforhodamine B assay; conditions: COLO 205, 48 h
CCRF-CEM = assay: Cytotoxicity against human CCRF-CEM cells assessed as growth inhibition after 48 hrs by sulforhodamine B assay
OVCAR-3 = assay: Cytotoxicity against human OVCAR3 cells assessed as growth inhibition after 48 hrs by sulforhodamine B assay; conditions: OVCAR-3, 48 h
SR = assay: Cytotoxicity against human SR cells assessed as cell growth at 0.1 uM after 48 hrs by sulforhodamine B assay relative to control; conditions: read-out: Activity
KM12 [2] = assay: Cytotoxicity against human KM12 cells assessed as cell growth at 0.01 uM after 48 hrs by sulforhodamine B assay relative to control; conditions: KM12, 48 h, read-out: Activity
SK-MEL-28 = assay: Cytotoxicity against human SK-MEL-28 cells assessed as cell growth at 0.01 uM after 48 hrs by sulforhodamine B assay relative to control; conditions: SK-MEL-28, 48 h, read-out: Activity
TK-10 = assay: Cytotoxicity against human TK10 cells assessed as cell growth at 0.01 uM after 48 hrs by sulforhodamine B assay relative to control; conditions: TK-10, 48 h, read-out: Activity
HCC 2998 [3] = assay: Cytotoxicity against human HCC2998 cells assessed as cell growth at 0.01 uM after 48 hrs by sulforhodamine B assay relative to control; conditions: HCC 2998, 48 h, read-out: Activity
HCT-15 [4] = assay: Cytotoxicity against human HCT15 cells assessed as cell growth at 10 uM after 48 hrs by sulforhodamine B assay relative to control; conditions: HCT-15, 48 h, read-out: Activity
COLO 205 [5] = assay: Cytotoxicity against human COLO205 cells assessed as cell growth at 10 uM after 48 hrs by sulforhodamine B assay relative to control; conditions: COLO 205, 48 h, read-out: Activity
HT-29 = assay: Cytotoxicity against human HT-29 cells assessed as cell growth at 0.01 uM after 48 hrs by sulforhodamine B assay relative to control; conditions: HT-29, 48 h, read-out: Activity
COLO 205 [6] = assay: Cytotoxicity against human COLO205 cells assessed as cell growth at 0.1 uM after 48 hrs by sulforhodamine B assay relative to control; conditions: COLO 205, 48 h, read-out: Activity
MDA-MB-468 = assay: Cytotoxicity against human MDA-MB-468 cells assessed as cell growth at 0.01 uM after 48 hrs by sulforhodamine B assay relative to control; conditions: MDA-MB-468, 48 h, read-out: Activity
UACC-257 = assay: Cytotoxicity against human UACC257 cells assessed as cell growth at 0.1 uM after 48 hrs by sulforhodamine B assay relative to control; conditions: UACC-257, 48 h, read-out: Activity
OVCAR-5 = assay: Cytotoxicity against human OVCAR5 cells assessed as cell growth at 10 uM after 48 hrs by sulforhodamine B assay relative to control; conditions: OVCAR-5, 48 h, read-out: Activity
KM12 [7] = assay: Cytotoxicity against human KM12 cells assessed as cell growth at 1 uM after 48 hrs by sulforhodamine B assay relative to control; conditions: KM12, 48 h, read-out: Activity
SN12C = assay: Cytotoxicity against human SN12C cells assessed as cell growth at 0.1 uM after 48 hrs by sulforhodamine B assay relative to control; conditions: read-out: Activity
HCT-15 [8] = assay: Cytotoxicity against human HCT15 cells assessed as cell growth at 0.01 uM after 48 hrs by sulforhodamine B assay relative to control; conditions: HCT-15, 48 h, read-out: Activity
SK-OV-3 = assay: Cytotoxicity against human SKOV3 cells assessed as cell growth at 0.1 uM after 48 hrs by sulforhodamine B assay relative to control; conditions: SK-OV-3, 48 h, read-out: Activity
MDA-MB-231 = assay: Cytotoxicity against human MDA-MB-231 cells assessed as cell growth at 10 uM after 48 hrs by sulforhodamine B assay relative to control; conditions: MDA-MB-231, 48 h, read-out: Activity
Hs-578T [9] = assay: Cytotoxicity against human Hs 578T cells assessed as cell growth at 0.01 uM after 48 hrs by sulforhodamine B assay relative to control; conditions: read-out: Activity
OVCAR-8 = assay: Cytotoxicity against human OVCAR8 cells assessed as cell growth at 10 uM after 48 hrs by sulforhodamine B assay relative to control; conditions: OVCAR-8, 48 h, read-out: Activity
HCC 2998 [10] = assay: Cytotoxicity against human HCC2998 cells assessed as cell growth at 10 uM after 48 hrs by sulforhodamine B assay relative to control; conditions: HCC 2998, 48 h, read-out: Activity
Hs-578T [11] = assay: Cytotoxicity against human Hs 578T cells assessed as cell growth at 1 uM after 48 hrs by sulforhodamine B assay relative to control; conditions: read-out: Activity
HOP-62 = assay: Cytotoxicity against human HOP62 cells assessed as cell growth at 1 uM after 48 hrs by sulforhodamine B assay relative to control; conditions: HOP-62, 48 h, read-out: Activity
HCT-116 = assay: Cytotoxicity against human HCT116 cells assessed as cell growth at 10 uM after 48 hrs by sulforhodamine B assay relative to control; conditions: HCT-116, 48 h, read-out: Activity
A498 = assay: Cytotoxicity against human A498 cells assessed as cell growth at 100 uM after 48 hrs by sulforhodamine B assay relative to control; conditions: A498, 48 h, read-out: Activity
HCC 2998 [12] = assay: Cytotoxicity against human HCC2998 cells assessed as cell growth at 0.1 uM after 48 hrs by sulforhodamine B assay relative to control; conditions: HCC 2998, 48 h, read-out: Activity
UO-31 = assay: Cytotoxicity against human UO31 cells assessed as cell growth at 0.1 uM after 48 hrs by sulforhodamine B assay relative to control; conditions: UO-31, 48 h, read-out: Activity

Compound: COc1ccc(-c2cc(/C=C/C(=O)c3ccc4c(c3)OCO4)[nH]n2)cc1OC
- GI50 (DU-145): 1640 nM
- GI50 (MDA-MB-435): 1720 nM
- GI50 (LOX IMVI): 1290 nM
- GI50 (M14): 1910 nM
- GI50 (PC-3): 1980 nM
- GI50 (COLO 205 [1]): 1550 nM
- GI50 (CCRF-CEM): 360 nM
- GI50 (OVCAR-3): 1960 nM

Compound: COc1cc(-c2cc(/C=C/C(=O)c3ccc(N)cc3)[nH]n2)cc(OC)c1OC
- GI50 (DU-145): 1650 nM
- TGI (DU-145): 4050 nM
- CC50 (DU-145; read-out: LC50 (the source's name)): 9950 nM
- growth at 0.1 µM (SR): 87%
- GI50 (MDA-MB-435): 1660 nM
- LC50 (MDA-MB-435): 6200 nM
- TGI (MDA-MB-435): 3210 nM
- growth at 0.01 µM (KM12 [2]): 102%
- growth at 0.01 µM (SK-MEL-28): 89%
- growth at 0.01 µM (TK-10): 102%
- growth at 0.01 µM (HCC 2998 [3]): 108%
- growth at 10 µM (HCT-15 [4]): -12%
- growth at 10 µM (COLO 205 [5]): -84%
- GI50 (LOX IMVI): 1060 nM
- LC50 (LOX IMVI): 6720 nM
- TGI (LOX IMVI): 3280 nM
- GI50 (M14): 1830 nM
- LC50 (concentration killing 50% of cells) (M14): 8170 nM
- TGI (M14): 3860 nM
- growth at 0.01 µM (HT-29): 98%
- growth at 0.1 µM (COLO 205 [6]): 100%
- growth at 0.01 µM (MDA-MB-468): 90%
- growth at 0.1 µM (UACC-257): 93%
- GI50 (PC-3): 2210 nM
- LC50 (PC-3): > 100000 nM
- TGI (PC-3): 10400 nM
- growth at 10 µM (OVCAR-5): -66%
- growth at 1 µM (KM12 [7]): 57%
- growth at 0.1 µM (SN12C): 99%
- growth at 0.01 µM (HCT-15 [8]): 92%
- growth at 0.1 µM (SK-OV-3): 98%
- growth at 10 µM (MDA-MB-231): 7%
- GI50 (COLO 205 [1]): 1740 nM
- LC50 (COLO 205 [1]): 6420 nM
- TGI (COLO 205 [1]): 3340 nM
- GI50 (CCRF-CEM): 550 nM
- LC50 (concentration killing 50% of cells) (CCRF-CEM): > 100000 nM
- TGI (CCRF-CEM): 4170 nM
- growth at 0.01 µM (Hs-578T [9]): 95%
- growth at 10 µM (OVCAR-8): -1%
- growth at 10 µM (HCC 2998 [10]): -86%
- growth at 1 µM (Hs-578T [11]): 87%
- growth at 1 µM (HOP-62): 86%
- growth at 10 µM (HCT-116): -78%
- growth at 100 µM (A498): -96%
- growth at 0.1 µM (HCC 2998 [12]): 108%
- growth at 0.1 µM (UO-31): 91%
- GI50 (OVCAR-3): 1570 nM
- LC50 (OVCAR-3): 7260 nM
- TGI (OVCAR-3): 3370 nM
